According to EP4653451A1, “POLYPEPTIDE COMPOUND AND USE THEREOF” (Chengdu New Radiomedicine Technology Co., Ltd., priority 2023, dated 2024):
Where a name gives a salt, the structure may show the parent alone. Numbered stars: 1 amine (or outer) side, 2 acyl side, 3 side chain; on linkers, the order of the positions; unused ones are H or OH. Bridge positions count the residues as written; N and C are the ends. Square brackets hold non-standard residues; d marks the D form. Peptide text beside a SMILES is read from it. * marks the point of attachment. TBMB(SCH2CH2NH-DOTA) = O=C(O)CN1CCN(CC(=O)O)CCN(CC(=O)NCCSCc2cc(C[*:1])cc(C[*:2])c2)CCN(CC(=O)O)CC1; 1Nal = N[C@@H](Cc1cccc2ccccc12)C(=O)O; β3hC = N[C@@H](CS)CC(=O)O; Hexanoyl = CCCCCC(=O)*

Legend:
[1] = biological target: T1, human recombinant DPP4 protein (Homo sapiens, UniProt P27487); test: Inhibitory activity against DPP4 protease activity (H-Gly-Pro-AMC fluorescence); assay type: biochemical; settings: 125 pM DPP4 working solution, 90 min at room temperature
T1 construct: purchased Acrobiosystems DP4-H5211
Method: The human recombinant DPP4 protein (Acrobiosystems, DP4-H5211) was formulated into a 125 pM working solution with an assay buffer (20 mM Tris-HCl, 100 mM NaCl), and the DPP4 substrate (H-Gly-Pro-AMC.HBr (LEONBIO, 115035-46-6)) was diluted to a 250 µM DPP4 substrate working solution with the assay buffer. 40 µl of DPP4 working solution and 20 µl of compounds at different concentrations (4-fold dilution) were taken, then 40 µl of DPP4 substrate working solution was added, and the mixture was uniformly mixed on a shaker at room temperature for 1 min. The uniformly mixed mixture was reacted at room temperature in the dark for 90 min. Reading was made by microplate reader at excitation and emission wavelengths of 380 nm and 460 nm. The original data was saved, and the IC50 value of the compound was obtained by analyzing the data with Graphpad PRISM.

in vitro = settings: CD-1, mouse, plasma
Method: The plasma stability experiment was performed using plasma from CD-1 mice. The compounds were diluted to a concentration of 1 mM with methanol. To 0.792 mL of plasma, 8.00 µL of 1 mM of each test compound was added, and 50.0 µL of the plasma sample was taken after uniform mixing. The remaining sample was placed in a 37°C water bath and incubated for 24 h. […] After centrifugation, the sample was diluted 1-fold with 0.2% trifluoroacetic acid and analyzed by LC-MS/MS.

[2] = biological target: T2, human recombinant FAP protein (Homo sapiens, UniProt Q12884); test: Inhibitory activity against FAP protease activity (Z-Gly-Pro-AMC fluorescence); assay type: biochemical; settings: 125 pM FAP working solution, 90 min at room temperature; read-out: FAP IC50
T2 construct: purchased Acrobiosystems FAP-H82Q6
T2 sequence (Q12884 1-760): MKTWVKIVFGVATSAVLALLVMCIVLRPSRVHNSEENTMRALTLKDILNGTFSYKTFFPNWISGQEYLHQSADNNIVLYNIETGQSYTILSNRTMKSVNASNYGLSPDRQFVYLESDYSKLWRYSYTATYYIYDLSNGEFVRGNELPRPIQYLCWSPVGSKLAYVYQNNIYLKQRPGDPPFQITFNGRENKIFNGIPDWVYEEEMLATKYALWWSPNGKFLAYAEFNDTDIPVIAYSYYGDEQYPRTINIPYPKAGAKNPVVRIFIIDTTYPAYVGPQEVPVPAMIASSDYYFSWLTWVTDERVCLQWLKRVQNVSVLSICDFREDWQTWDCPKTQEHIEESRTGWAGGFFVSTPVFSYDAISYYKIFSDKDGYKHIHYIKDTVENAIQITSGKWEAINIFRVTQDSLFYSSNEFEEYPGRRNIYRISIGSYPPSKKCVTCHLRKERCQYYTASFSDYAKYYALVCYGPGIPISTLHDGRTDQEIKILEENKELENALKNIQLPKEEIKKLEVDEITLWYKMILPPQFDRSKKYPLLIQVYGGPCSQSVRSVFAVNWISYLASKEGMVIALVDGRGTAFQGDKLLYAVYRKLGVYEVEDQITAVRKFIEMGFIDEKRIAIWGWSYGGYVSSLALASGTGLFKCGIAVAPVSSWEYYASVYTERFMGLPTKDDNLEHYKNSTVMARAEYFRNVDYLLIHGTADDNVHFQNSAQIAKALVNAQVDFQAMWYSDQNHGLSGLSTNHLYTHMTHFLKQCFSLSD
Method in brief: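 Working solutions of 125 pM recombinant human FAP and 150 µM Z-Gly-Pro-AMC, in pH 7.5 Tris buffer with 1 M NaCl and 1 mg/mL BSA, combined with 4-fold compound dilutions and reacted 90 min at room temperature in the dark. AMC fluorescence (Ex 380/Em 460 nm) used to fit IC50.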

[3] = biological target: T3, human recombinant PREP protein (Homo sapiens, UniProt P48147); test: Inhibitory activity against PREP protease activity, reported as PREP/FAP IC50 ratio; assay type: biochemical; settings: ratio of PREP IC50 to FAP IC50
T3 construct: purchased R&D systems 4308-SE-010
T3 sequence (P48147 1-710): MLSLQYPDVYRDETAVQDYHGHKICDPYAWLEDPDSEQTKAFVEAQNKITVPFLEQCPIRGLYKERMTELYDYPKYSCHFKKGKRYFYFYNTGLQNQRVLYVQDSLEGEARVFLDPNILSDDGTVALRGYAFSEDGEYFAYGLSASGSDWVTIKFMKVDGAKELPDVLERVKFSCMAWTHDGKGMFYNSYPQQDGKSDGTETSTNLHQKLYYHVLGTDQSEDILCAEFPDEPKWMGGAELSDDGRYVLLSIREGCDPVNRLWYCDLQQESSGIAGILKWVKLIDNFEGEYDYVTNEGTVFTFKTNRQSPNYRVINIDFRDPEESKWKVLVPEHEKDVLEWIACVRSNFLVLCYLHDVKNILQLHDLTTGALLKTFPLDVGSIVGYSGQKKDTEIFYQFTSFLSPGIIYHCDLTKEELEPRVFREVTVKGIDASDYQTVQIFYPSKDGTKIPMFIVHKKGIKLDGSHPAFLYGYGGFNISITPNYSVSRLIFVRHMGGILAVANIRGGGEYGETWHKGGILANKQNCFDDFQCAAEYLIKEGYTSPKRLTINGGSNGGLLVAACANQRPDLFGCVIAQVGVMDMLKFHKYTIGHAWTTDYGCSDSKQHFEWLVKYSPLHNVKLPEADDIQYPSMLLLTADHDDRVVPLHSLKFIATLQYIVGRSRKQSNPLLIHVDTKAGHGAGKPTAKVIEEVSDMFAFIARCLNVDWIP
Method: The human recombinant PREP protein (R&D systems, 4308-SE-010) was formulated into a 125 pM working solution with a assay buffer (25 mM Tris-HCl, 250 mM NaCl, 2.5 mM DTT, 1 mg/mL BSA), and the PREP substrate (Z-Gly-Pro-AMC (LEONBIO, 68542-93-8)) was diluted to a 125 µM PREP substrate working solution with the assay buffer. 40 µl of PREP working solution and 20 µl of compounds at different concentrations (4-fold dilution) were taken, then 40 µl of PREP substrate working solution was added, and the mixture was uniformly mixed on a shaker at room temperature for 1 min. The uniformly mixed mixture was reacted at room temperature in the dark for 90 min. Reading was made by microplate reader at excitation and emission wavelengths of 380 nm and 460 nm. The original data was saved, and the IC50 value of the compound was obtained by analyzing the data with Graphpad PRISM.

HEK293-FAP cells = test: Distribution in tissues of HEK293-FAP tumor-bearing mice (gamma counter); assay type: in vivo, SCID mice; settings: mouse, in vivo
Method: (§1) Male SCID mice (6-8 weeks old) were subcutaneously inoculated with 5 × 10^6 HEK293-FAP cells (FAP was highly expressed in HEK293 cells). 10 days later, 30 mice with tumor size of 200-300 mm^3 were randomly divided into 3 groups. Each mouse in the 3 groups was administered with compound ^177Lu-3BP-3554, compound 29 and compound 30 with a radiation dose of 100 µCi, respectively. Blood, kidney and tumor tissues were collected at time points of 4 h, 8 h, 24 h, 72 h and 168 h, and all blood samples and tissue samples were measured for radioactive counts by gamma counter.

[4] = as above; assay type: in vivo, SCID mice; settings: male, SCID, mouse, in vivo, 100 uCi, total radioactivity
Method: as §1

T1 sequence (P27487 whole entry): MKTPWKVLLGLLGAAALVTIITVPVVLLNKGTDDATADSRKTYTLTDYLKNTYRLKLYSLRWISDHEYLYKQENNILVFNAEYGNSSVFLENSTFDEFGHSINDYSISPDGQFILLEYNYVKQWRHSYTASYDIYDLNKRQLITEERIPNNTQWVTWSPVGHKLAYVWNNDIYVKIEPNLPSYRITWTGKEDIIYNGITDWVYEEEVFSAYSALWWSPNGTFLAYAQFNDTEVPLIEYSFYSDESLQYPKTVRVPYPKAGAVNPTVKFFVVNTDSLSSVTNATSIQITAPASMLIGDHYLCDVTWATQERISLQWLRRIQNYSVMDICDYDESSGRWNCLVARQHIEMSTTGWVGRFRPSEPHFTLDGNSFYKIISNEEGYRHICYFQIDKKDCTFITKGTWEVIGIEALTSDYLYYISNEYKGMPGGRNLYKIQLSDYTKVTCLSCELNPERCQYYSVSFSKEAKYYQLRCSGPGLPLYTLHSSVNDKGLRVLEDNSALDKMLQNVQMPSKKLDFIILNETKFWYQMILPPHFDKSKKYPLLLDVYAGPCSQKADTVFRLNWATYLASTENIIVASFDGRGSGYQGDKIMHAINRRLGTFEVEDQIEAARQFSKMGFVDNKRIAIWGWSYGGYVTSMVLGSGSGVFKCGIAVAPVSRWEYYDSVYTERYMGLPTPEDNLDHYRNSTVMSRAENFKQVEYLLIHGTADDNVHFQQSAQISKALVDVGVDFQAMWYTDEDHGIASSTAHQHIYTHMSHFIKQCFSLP

CCCCCC(=O)N[C@H]1CSCc2cc(CSCCNC(=O)CN3CCN(CC(=O)O)CCN(CC(=O)O)CCN(CC(=O)O)CC3)cc(c2)CSC[C@@H](C(=O)O)NC(=O)[C@H](Cc2ccccc2)NC(=O)[C@H](CCC(N)=O)NC(=O)[C@H]([C@@H](C)O)NC(=O)[C@@H]2CCCN2C(=O)[C@@H]2CCCN2C1=O [Compound 3BP-3554, reference compound]
IC50 [1]: > 10000 nM
remaining at 24 h, 10 µM (in vitro): 87%

CCCCCC(=O)N[C@H]1CSCc2cc(CSCCNC(=O)CN3CCN(CC(=O)O)CCN(CC(=O)O)CCN(CC(=O)O)CC3)cc(c2)CSC[C@@H](CC(=O)O)NC(=O)[C@H](Cc2cccc3ccccc23)NC(=O)[C@H](CCC(N)=O)NC(=O)[C@H]([C@@H](C)O)NC(=O)[C@@H]2CCCN2C(=O)[C@@H]2CCCN2C1=O [Compound 11, Hex-Cys-Pro-Pro-Thr-Gln-1Nal-beta-HomoCys (Cys bridge TBMB (DOTA-AET)) trifluoroacetate] (Hexanoyl-CPPTQ[1Nal][β3hC]-OH; linker 1-7 via TBMB(SCH2CH2NH-DOTA))
IC50 [1]: > 10000 nM
remaining at 24 h, 10 µM (in vitro): 94%
IC50 [2]: 0.26 nM

CCCCCC(=O)N[C@H]1CSCc2cc(CSCCNC(=O)CN3CCN(CC(=O)O)CCN(CC(=O)O)CCN(CC(=O)O)CC3)cc(c2)CSC[C@@H](CC(=O)O)NC(=O)[C@H](Cc2ccccc2C(F)(F)F)NC(=O)[C@H](CCC(N)=O)NC(=O)[C@H]([C@@H](C)O)NC(=O)[C@@H]2CCCN2C(=O)[C@@H]2CCCN2C1=O [Compound 12, Hex-Cys-Pro-Pro-Thr-Gln- Phe(2-CF3)-beta-HomoCys (Cys bridge TBMB (DOTA-AET)) trifluoroacetate]
IC50 [1]: > 10000 nM
remaining at 24 h, 10 µM (in vitro): 94%
IC50 [2]: 0.46 nM
PREP/FAP [3]: A (A > 10000)

CCCCCC(=O)N[C@H]1CSCc2cc(CSCCNC(=O)CN3CCN(CC(=O)O)CCN(CC(=O)O)CCN(CC(=O)O)CC3)cc(c2)CSC[C@@H](CC(=O)N[C@@H](Cc2ccc3ccccc3c2)C(=O)O)NC(=O)[C@H](Cc2ccccc2)NC(=O)[C@H](CCC(N)=O)NC(=O)[C@H]([C@@H](C)O)NC(=O)[C@@H]2CCCN2C(=O)[C@@H]2CCCN2C1=O [Compound 13, Hex-Cys-Pro-Pro-Thr-Gln-Phe-beta-HomoCys-2Nal (Cys bridge TBMB (DOTA-AET)) trifluoroacetate]
IC50 [1]: > 10000 nM
remaining at 24 h, 10 µM (in vitro): 100%
IC50 [2]: 0.97 nM

CCCCCC(=O)N[C@H]1CSCc2cc(CSCCNC(=O)CN3CCN(CC(=O)O)CCN(CC(=O)O)CCN(CC(=O)O)CC3)cc(c2)CSC[C@@H](CC(=O)O)NC(=O)[C@H](Cc2cccc3ccccc23)NC(=O)[C@H](CCC(N)=O)NC(=O)[C@H]([C@@H](C)O)NC(=O)[C@@H]2CCCN2C(=O)[C@@H]2CCCN2C1=O [Compound 29] (Hexanoyl-CPPTQ[1Nal][β3hC]-OH; linker 1-7 via TBMB(SCH2CH2NH-DOTA))
injection dose%/g tissue at different time points (HEK293-FAP cells): significantly higher than that of ^177Lu-3BP-3554
tissue selectivity for kidney and blood tissues (HEK293-FAP cells): better tissue selectivity for kidney and blood tissues than ^177Lu-3BP-3554
tissue to tissue ratio at 4 h ([4]; Tumor/blood): 26.2
tissue to tissue ratio at 8 h ([4]; Tumor/blood): 70.1
tissue to tissue ratio at 24 h ([4]; Tumor/blood): 1630
tissue to tissue ratio at 72 h ([4]; Tumor/blood): 2410
tissue to tissue ratio at 168 h ([4]; Tumor/blood): 1160
tissue to tissue ratio at 4 h ([4]; Tumor/kidney): 2.32
tissue to tissue ratio at 8 h ([4]; Tumor/kidney): 3.18
tissue to tissue ratio at 24 h ([4]; Tumor/kidney): 3.99
tissue to tissue ratio at 72 h ([4]; Tumor/kidney): 7.12
tissue to tissue ratio at 168 h ([4]; Tumor/kidney): 27.6

CCCCCC(=O)N[C@H]1CSCc2cccc(c2F)CSC[C@@H](CNC(=O)C[C@@H](C)NC(=O)[C@H]2CC[C@H](CNC(=O)CN3CCN(CC(=O)O)CCN(CC(=O)O)CCN(CC(=O)O)CC3)CC2)NC(=O)[C@H](Cc2ccccc2)NC(=O)[C@H](CCC(N)=O)NC(=O)[C@H]([C@@H](C)O)NC(=O)[C@@H]2CCCN2C(=O)[C@@H]2CCCN2C1=O [Compound 30]
injection dose%/g tissue at different time points (HEK293-FAP cells): significantly higher than that of ^177Lu-3BP-3554
tissue selectivity for kidney and blood tissues (HEK293-FAP cells): better tissue selectivity for kidney and blood tissues than ^177Lu-3BP-3554
tissue to tissue ratio at 4 h ([4]; Tumor/blood): 16.3
tissue to tissue ratio at 8 h ([4]; Tumor/blood): 32.3
tissue to tissue ratio at 24 h ([4]; Tumor/blood): 212
tissue to tissue ratio at 72 h ([4]; Tumor/blood): 1100
tissue to tissue ratio at 168 h ([4]; Tumor/blood): 484
tissue to tissue ratio at 4 h ([4]; Tumor/kidney): 6.88
tissue to tissue ratio at 8 h ([4]; Tumor/kidney): 5.56
tissue to tissue ratio at 24 h ([4]; Tumor/kidney): 5.95
tissue to tissue ratio at 72 h ([4]; Tumor/kidney): 6.98
tissue to tissue ratio at 168 h ([4]; Tumor/kidney): 11.8

Hex-Cys-Pro-Pro-Thr-Gln-Phe-Cys-CH2NH-cyclopentacarboxylic acid (Cys bridge TBMB (DOTA-AET)) trifluoroacetate [Compound 14]
PREP/FAP [3]: B (10000 > B > 3300)

Hex-Cys-Pro-Pro-Thr-Gln-Phe-Cys-CH2NHAc (Cys bridge TBMB (DOTA-AET)) trifluoroacetate [Compound 10]
PREP/FAP [3]: A (A > 10000)
